One experiment concerns MTLn3 xenograft. Kind of experiment: Tumor growth inhibition in the MTLn3 xenograft model. The note with it: 2 to 3 weeks oral dosing at 80 mg/kg once weekly. The class given is in vivo, rat. On the procedure: Female Fischer rats obtained from Charles River Laboratories were used when they were ˜13-15 weeks old and weighed ˜150 grams. All animals were examined prior to the initiation of studies to ensure that they were healthy and acclimated to the laboratory environment. Autoclaved water and irradiated food were provided ad libitum, and the animals were maintained in a 12 hour light and dark cycle. MTLn3 cells were grown in RPMI 1640 supplemented with 10% heat-inactivated Fetal Bovine Serum (HI-FBS; GIBCO/Invitrogen, Carlsbad, Calif.) and 2 mM L-glutamine (GIBCO/Invitrogen) and maintained at 37° C. at 5% CO2. The MTLn3 cells were obtained from Hoffmann-La Roche Inc., Nutley, N.J. Approximately 1×10^6 cells/0.2mls/rat in PBS (Phosphate Buffered Saline) Phenol-red free, Ca^+2 and Mg^+2-free were implanted subcutaneously in the right mammary fat pad. The dose selected was 80 mg/kg, determined to be an efficacious dose in this animal model. Tumor growth inhibition in the MTLn3 xenograft model after 2 to 3 weeks of oral dosing at 80 mg/kg once weekly averaged 90% with 2/10 complete regressions. […] Concentrations of COMPOUND A in plasma and tumors were determined in the same three animals per time point. […] Peripheral blood mononuclear cells (PBMCs) were isolated, stimulated ex vivo with mitogen and analyzed by Western blot as described below.

Experiment [1] relates to Rb phosphorylation in rat PBMCs. Kind of experiment: Rb phosphorylation in ex vivo PMA-stimulated rat PBMCs after a single oral dose. The following applies: single oral dose 80 mg/kg. As for the experimental part: The dose selected was 80 mg/kg, determined to be an efficacious dose in this animal model. Tumor growth inhibition in the MTLn3 xenograft model after 2 to 3 weeks of oral dosing at 80 mg/kg once weekly averaged 90% with 2/10 complete regressions. COMPOUND A was dosed on day 10 post implantation of cells, at which time the tumors were 100-200 mm^3 in size. In this pharmacokinetic/pharmacodynamic experiment, plasma and tumors were collected at 1, 2, 6, 24 and 72 hours post dosing of a single oral dose of COMPOUND A. Tumors were removed and immediately snap frozen in liquid nitrogen and stored at −80° C. until drug concentration analysis. […] Concentrations of COMPOUND A in plasma and tumors were determined in the same three animals per time point. […] Peripheral blood mononuclear cells (PBMCs) were isolated, stimulated ex vivo with mitogen and analyzed by Western blot as described below. […]
PBMCs were collected by transferring the cells, including attached cells and those in suspension, into 50 ml tubes. […] Samples were sonicated on ice for 30 seconds, clarified by centrifugation at 16,000×g for 10 minutes at 4° C. and protein concentrations determined using Non-Interfering Protein Assay Kit (Geno Technology Incorporated, Maplewood, Mo.). […] For Western blotting, total Rb was detected using antibody from Pharmingen (BD Bioscience, San Diego, Calif.) at a dilution of 1:2000. […]

Another experiment deals with HCT116 cells. Kind of experiment: 5-day proliferation assay, cell growth inhibition. In kind it is cell-based. The note with it: Homo sapiens, HCT-116, 120 h; HCT116, 5-day proliferation assay.

Turning to `COc1ccc(F)c(F)c1C(=O)c1cnc(NC2CCN(S(C)(=O)=O)CC2)nc1N` [COMPOUND A, [4-amino-2-(1-methanesulfonylpiperidin-4-ylamino)pyrimidin-5-yl]-(2,3-difluoro-6-methoxyphenyl)methanone], in the experiment on MTLn3 xenograft, the Tumor growth inhibition is on record as 90% and the complete regressions is listed as 2/10. Besides, the “Total Rb levels in PBMCs” value in experiment [1] (female Fischer rats) is recorded as “did not appear to decrease”. Besides, in experiment [1] (female Fischer rats, 2, 6 and up to 24 hours post treatment, Western blot), the “Rb phosphorylation (serine 795) in ex vivo stimulated PBMCs” value is “decrease in Rb phosphorylation”. For the same compound, in the experiment with HCT116 cells, the concentration for half-maximal inhibition (IC50) amounted to 100 nM and the IC90 is 200 nM.

The term IC50 denotes the concentration at which inhibition is half-maximal. What is called IC90 is the point of the concentration-response curve where the effect stands at 90%.

These data come from US20060269482A1 (priority 2005, published 2006).
